Assay results: US11331299B2, “Medicinal use of serrulatane diterpenes” (The University of Sydney, priority 2016, dated 2022)

Assays:
[1] = biological target: T1, CBX5 (h) chromodomain (Homo sapiens, UniProt P45973); test: Epigenetic binding assay, Chromodomain; conditions: read-out: % Inhibition of Control Specific Binding
T1 construct: Recognition and specificity determinants of the human cbx chromodomains; Eurofins CEREP (France), contract laboratory

[2] = biological target: T2, CBX8 (h) chromodomain (Homo sapiens, UniProt Q9HC52); test: Epigenetic binding assay, Chromodomain; conditions: read-out: % Inhibition of Control Specific Binding
T2 construct: Recognition and specificity determinants of the human cbx chromodomains; Eurofins CEREP (France), contract laboratory
T2 sequence (Q9HC52 11-69 limits assumed): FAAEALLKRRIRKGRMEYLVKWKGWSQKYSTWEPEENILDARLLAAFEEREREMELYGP

[3] = test system: H3K36 me2; test: Cell-based detection methyl modifications; conditions: read-out: % Inhibition of Control Values
[4] = biological target: T3, FBXL11 (h) (Homo sapiens, UniProt Q9Y2K7); test: Epigenetic enzyme assay, Demethylases (KDMs); assay type: biochemical; conditions: read-out: % Inhibition of Control Values
T3 sequence (Q9Y2K7 1-1162): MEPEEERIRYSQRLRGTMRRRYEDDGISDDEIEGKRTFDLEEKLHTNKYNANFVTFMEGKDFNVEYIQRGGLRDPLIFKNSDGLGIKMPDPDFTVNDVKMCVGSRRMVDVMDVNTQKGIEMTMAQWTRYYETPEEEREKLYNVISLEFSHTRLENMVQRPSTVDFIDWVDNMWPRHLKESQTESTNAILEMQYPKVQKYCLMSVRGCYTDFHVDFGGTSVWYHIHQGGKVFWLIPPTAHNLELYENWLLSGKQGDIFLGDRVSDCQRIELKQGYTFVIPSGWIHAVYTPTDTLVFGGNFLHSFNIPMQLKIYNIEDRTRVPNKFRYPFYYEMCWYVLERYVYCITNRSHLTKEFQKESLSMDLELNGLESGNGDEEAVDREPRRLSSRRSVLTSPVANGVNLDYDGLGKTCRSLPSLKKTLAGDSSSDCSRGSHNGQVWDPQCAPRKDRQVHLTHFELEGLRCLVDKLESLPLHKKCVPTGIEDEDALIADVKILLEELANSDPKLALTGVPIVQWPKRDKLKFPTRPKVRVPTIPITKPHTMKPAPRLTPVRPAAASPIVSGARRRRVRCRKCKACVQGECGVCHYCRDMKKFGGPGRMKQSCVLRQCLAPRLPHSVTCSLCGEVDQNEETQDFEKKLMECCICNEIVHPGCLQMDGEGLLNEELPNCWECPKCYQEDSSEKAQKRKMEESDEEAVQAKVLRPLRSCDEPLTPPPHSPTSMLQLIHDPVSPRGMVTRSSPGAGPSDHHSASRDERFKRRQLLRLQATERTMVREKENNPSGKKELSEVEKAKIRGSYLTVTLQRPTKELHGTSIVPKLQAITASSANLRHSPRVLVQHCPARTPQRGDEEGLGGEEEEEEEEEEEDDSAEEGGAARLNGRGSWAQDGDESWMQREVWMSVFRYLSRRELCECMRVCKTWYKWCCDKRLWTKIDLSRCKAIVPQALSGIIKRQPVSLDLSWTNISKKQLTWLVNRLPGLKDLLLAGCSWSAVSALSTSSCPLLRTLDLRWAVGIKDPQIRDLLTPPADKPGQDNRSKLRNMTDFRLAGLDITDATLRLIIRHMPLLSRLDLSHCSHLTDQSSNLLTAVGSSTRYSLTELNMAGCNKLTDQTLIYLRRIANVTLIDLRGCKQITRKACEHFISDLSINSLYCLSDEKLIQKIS

[5] = biological target: LSD1 (h) (Homo sapiens, UniProt O60341); test: Epigenetic enzyme assay, Demethylases (KDMs); assay type: biochemical; conditions: read-out: % Inhibition of Control Values
[6] = biological target: CREBBP(h) (Homo sapiens, UniProt Q92793); test: Epigenetic enzyme assay, Histone acetyltransferases (HATs); assay type: biochemical; conditions: for inhibition at 10 µM: read-out: % Inhibition of Control Values; for IC50: Table 11, inhibition/concentration-response curve
[7] = biological target: GCN5L2(h) (Homo sapiens, UniProt Q92830); test: as above; assay type: biochemical; conditions: 10 μM; read-out: % Inhibition of Control Values
[8] = biological target: MYST4(h) (Homo sapiens, UniProt Q8WYB5); test: as above; assay type: biochemical; conditions: for inhibition at 10 µM: read-out: % Inhibition of Control Values
[9] = biological target: HDAC4 (h) (Homo sapiens, UniProt P56524); test: Epigenetic enzyme assay, Histone deacetylase (HDACs); assay type: biochemical; conditions: read-out: % Inhibition of Control Values
[10] = biological target: T4, Nicotinamide N-methyltransferase (h) (Homo sapiens, UniProt P40261); test: Epigenetic enzyme assay, Small molecule methyltransferases; assay type: biochemical; conditions: read-out: % Inhibition of Control Values
T4 sequence (P40261 1-264): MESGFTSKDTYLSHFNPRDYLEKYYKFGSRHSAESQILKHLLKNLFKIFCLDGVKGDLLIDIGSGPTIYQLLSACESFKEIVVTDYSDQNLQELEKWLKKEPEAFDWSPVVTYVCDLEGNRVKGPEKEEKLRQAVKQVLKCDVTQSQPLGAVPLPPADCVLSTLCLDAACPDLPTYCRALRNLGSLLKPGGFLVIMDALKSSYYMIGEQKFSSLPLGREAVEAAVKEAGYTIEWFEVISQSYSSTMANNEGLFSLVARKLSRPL

[11] = test system: RKO-AS45-1; test: OncoPanel cell proliferation assay (10-day); assay type: cell-based, human; conditions: for EC50 / GI50 / IC50: Homo sapiens, RKOAS451, RKO-AS45-1, Colon; for EC50: read-out: Cell Count EC50; for GI50: read-out: Cell Count GI50; for IC50: read-out: Cell Count IC50
[12] = test system: 639-V; test: OncoPanel cell proliferation assay (10-day); assay type: cell-based, human; conditions: for EC50 / GI50 / IC50: Homo sapiens, Bladder; for EC50: read-out: Cell Count EC50; for GI50: read-out: Cell Count GI50; for IC50: read-out: Cell Count IC50

GCN5L2(h), sequence (Q92830 whole entry): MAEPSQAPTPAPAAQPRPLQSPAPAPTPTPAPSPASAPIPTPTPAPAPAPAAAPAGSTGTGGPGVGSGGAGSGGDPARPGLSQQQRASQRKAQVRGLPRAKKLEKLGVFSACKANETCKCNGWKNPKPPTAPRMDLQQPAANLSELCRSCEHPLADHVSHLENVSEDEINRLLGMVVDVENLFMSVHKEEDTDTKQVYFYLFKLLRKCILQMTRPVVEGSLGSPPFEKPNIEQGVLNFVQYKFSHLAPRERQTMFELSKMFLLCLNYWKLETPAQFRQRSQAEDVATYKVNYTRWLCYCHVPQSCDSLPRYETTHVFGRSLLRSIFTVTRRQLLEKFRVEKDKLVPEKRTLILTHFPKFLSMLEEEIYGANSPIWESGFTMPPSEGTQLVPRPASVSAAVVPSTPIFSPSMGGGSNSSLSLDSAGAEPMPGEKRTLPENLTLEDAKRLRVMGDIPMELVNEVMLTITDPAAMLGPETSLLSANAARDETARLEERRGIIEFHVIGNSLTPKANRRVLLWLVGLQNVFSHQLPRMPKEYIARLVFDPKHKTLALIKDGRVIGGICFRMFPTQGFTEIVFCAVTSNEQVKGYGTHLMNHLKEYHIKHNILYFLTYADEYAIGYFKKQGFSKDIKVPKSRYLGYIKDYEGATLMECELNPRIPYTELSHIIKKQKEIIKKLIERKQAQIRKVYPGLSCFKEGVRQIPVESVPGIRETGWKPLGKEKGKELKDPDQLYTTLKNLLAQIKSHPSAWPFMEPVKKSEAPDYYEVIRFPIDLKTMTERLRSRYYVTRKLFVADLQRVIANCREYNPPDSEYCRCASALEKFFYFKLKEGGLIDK
MYST4(h), sequence (Q8WYB5 whole entry): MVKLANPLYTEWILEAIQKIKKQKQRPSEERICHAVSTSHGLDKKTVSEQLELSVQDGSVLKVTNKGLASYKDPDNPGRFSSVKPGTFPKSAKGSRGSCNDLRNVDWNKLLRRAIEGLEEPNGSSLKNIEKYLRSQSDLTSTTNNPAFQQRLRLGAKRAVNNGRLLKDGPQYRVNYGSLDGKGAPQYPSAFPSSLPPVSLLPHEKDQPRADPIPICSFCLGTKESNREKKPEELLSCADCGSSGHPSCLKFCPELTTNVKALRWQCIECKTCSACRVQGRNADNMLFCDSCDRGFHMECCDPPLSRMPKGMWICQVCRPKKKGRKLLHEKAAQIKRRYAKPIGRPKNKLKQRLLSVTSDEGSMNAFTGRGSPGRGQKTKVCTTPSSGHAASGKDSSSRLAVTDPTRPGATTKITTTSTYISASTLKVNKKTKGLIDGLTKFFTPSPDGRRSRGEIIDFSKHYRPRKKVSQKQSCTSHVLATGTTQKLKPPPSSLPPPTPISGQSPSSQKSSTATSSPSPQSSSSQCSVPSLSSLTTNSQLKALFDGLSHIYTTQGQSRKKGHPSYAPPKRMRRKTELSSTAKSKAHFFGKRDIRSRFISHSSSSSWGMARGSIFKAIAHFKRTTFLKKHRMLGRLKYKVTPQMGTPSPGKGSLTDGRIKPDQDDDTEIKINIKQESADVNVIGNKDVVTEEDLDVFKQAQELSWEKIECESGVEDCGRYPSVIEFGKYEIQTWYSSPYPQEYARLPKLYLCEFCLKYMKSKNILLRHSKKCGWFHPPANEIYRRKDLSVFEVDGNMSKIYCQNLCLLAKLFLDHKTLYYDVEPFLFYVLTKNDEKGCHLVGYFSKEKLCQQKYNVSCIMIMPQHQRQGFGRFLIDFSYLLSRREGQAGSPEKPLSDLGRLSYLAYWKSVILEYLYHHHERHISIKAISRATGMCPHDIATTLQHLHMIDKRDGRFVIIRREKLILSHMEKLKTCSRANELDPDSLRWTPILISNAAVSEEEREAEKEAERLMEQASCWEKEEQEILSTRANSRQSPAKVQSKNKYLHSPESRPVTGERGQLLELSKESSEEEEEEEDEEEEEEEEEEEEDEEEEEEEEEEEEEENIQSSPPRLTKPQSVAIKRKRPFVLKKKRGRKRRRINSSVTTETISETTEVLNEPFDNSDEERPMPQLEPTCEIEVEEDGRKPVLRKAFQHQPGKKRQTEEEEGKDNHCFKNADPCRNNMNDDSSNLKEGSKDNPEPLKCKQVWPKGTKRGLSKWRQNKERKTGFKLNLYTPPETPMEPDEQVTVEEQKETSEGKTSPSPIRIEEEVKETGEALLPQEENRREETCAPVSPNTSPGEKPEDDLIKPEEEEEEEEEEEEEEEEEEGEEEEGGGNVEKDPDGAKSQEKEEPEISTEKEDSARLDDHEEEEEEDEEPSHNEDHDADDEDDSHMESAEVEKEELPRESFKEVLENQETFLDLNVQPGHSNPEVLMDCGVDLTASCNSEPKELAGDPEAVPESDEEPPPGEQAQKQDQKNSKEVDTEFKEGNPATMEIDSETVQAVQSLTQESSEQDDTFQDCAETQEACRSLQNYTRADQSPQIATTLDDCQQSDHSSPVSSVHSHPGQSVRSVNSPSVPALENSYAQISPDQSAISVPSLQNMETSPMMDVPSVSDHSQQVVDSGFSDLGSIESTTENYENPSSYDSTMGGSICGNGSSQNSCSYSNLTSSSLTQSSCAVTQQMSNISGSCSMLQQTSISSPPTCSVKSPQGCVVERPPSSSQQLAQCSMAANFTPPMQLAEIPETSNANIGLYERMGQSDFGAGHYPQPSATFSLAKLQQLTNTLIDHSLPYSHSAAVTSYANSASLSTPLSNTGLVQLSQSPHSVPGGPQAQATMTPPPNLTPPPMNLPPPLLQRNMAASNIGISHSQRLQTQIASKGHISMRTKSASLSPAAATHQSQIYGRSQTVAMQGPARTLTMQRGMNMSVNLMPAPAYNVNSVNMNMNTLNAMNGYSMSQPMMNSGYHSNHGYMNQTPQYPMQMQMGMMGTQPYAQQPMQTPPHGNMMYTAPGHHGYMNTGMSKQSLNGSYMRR
HDAC4 (h), sequence (P56524 whole entry): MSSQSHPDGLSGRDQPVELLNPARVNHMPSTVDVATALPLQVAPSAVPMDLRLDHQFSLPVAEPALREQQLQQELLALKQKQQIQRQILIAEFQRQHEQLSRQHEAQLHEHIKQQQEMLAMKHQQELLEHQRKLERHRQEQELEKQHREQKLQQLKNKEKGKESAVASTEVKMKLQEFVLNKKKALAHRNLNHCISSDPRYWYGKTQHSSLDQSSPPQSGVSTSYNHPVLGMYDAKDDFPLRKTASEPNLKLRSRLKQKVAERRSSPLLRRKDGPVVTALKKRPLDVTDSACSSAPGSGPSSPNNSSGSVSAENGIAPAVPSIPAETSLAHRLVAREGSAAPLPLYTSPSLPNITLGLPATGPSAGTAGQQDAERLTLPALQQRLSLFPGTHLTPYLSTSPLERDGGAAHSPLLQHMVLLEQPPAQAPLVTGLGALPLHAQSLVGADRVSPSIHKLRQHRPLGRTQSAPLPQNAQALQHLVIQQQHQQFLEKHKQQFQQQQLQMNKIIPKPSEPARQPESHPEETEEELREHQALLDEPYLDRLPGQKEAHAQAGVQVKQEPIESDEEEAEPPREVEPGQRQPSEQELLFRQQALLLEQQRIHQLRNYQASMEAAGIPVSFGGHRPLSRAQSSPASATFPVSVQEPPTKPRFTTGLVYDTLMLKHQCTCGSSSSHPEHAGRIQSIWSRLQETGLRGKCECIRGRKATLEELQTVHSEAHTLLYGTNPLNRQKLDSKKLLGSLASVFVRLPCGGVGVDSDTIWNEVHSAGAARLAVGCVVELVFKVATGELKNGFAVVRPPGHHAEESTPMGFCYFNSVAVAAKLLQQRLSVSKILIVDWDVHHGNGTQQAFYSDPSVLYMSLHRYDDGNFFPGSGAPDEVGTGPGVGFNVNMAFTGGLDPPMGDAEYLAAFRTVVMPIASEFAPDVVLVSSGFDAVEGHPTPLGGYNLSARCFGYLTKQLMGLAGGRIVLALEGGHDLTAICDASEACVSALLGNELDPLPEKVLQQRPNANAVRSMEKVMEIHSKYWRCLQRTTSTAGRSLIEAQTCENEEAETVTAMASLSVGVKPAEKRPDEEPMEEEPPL
T1 sequence (P45973 20-78 limits assumed): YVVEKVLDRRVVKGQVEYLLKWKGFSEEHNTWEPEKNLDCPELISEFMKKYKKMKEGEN

CC(C)=CCC[C@H](CO)[C@@H]1CC[C@@H](C)c2c1cc(C)c(O)c2O [Compound 1, 7,8,18-trihydroxyserrulat-14-ene]
inhibition at 10 µM [1]: 25%
inhibition at 10 µM [2]: 27%
inhibition at 10 µM [3]: 10%
inhibition at 10 µM [4]: 34%
inhibition at 10 µM [5]: 10%
inhibition at 10 µM [6]: 74%
IC50 [6]: 3.9 µM
inhibition at 10 µM [7]: 11%
inhibition at 10 µM [8]: 25%
inhibition at 10 µM [9]: -73%
inhibition at 10 µM [10]: 13%
Relative cell count (%) Mean ([11]; 3.00E+00 microM): 7.6%
Relative cell count (%) Mean ([11]; 3.00E+01 microM): 0.1%
Relative cell count (%) Mean ([11]; 3.01E−01 microM): 90.0%
Relative cell count (%) Mean ([11]; 3.01E−02 microM): 86.2%
Relative cell count (%) Mean ([11]; 3.02E−03 microM): 83.7%
Relative cell count (%) Mean ([11]; 9.49E+00 microM): 0.1%
Relative cell count (%) Mean ([11]; 9.51E−01 microM): 72.1%
Relative cell count (%) Mean ([11]; 9.52E−02 microM): 80.5%
Relative cell count (%) Mean ([11]; 9.53E−03 microM): 88.3%
Relative cell count (%) Mean ([11]; 9.55E−04 microM): 95.4%
EC50 [11]: 1.5 µM
GI50 [11]: 1.5 µM
IC50 [11]: 1.5 µM
Relative cell count (%) Mean ([12]; 3.00E+00 microM): 15.8%
Relative cell count (%) Mean ([12]; 3.00E+01 microM): 0.0%
Relative cell count (%) Mean ([12]; 3.01E−01 microM): 92.6%
Relative cell count (%) Mean ([12]; 3.01E−02 microM): 103.6%
Relative cell count (%) Mean ([12]; 3.02E−03 microM): 96.1%
Relative cell count (%) Mean ([12]; 9.49E+00 microM): 0.3%
Relative cell count (%) Mean ([12]; 9.51E−01 microM): 91.9%
Relative cell count (%) Mean ([12]; 9.52E−02 microM): 91.6%
Relative cell count (%) Mean ([12]; 9.53E−03 microM): 101.2%
Relative cell count (%) Mean ([12]; 9.55E−04 microM): 92.0%
EC50 [12]: 2.01 µM
GI50 [12]: 2.01 µM
IC50 [12]: 2.01 µM

CC(C)=CCC[C@@H]1COc2c(C)cc(O)c3c2[C@H]1CC[C@H]3C [Compound 3, 5,18-epoxy-8-hydroxyserrulat-14-ene]
inhibition at 10 µM [1]: 25%
inhibition at 10 µM [2]: 23%
inhibition at 10 µM [3]: -8%
inhibition at 10 µM [4]: 11%
inhibition at 10 µM [5]: -3%
inhibition at 10 µM [6]: 43%
inhibition at 10 µM [7]: 1%
inhibition at 10 µM [8]: 71%
inhibition at 10 µM [9]: -11%
inhibition at 10 µM [10]: -2%

CC(C)=CCC[C@H](C)[C@@H]1CC[C@@H](C)c2c1cc(C)c(O)c2O [Compound 4, 7,8-dihydroxyserrulat-14-ene]
IC50 ([8]; Table 11, inhibition/concentration-response curve): 4.2 µM
EC50 [11]: 12.8 µM
GI50 [11]: 12.8 µM
IC50 [11]: 12.8 µM
EC50 [12]: 12 µM
GI50 [12]: 12 µM
IC50 [12]: 12 µM

CC(C)=CCC[C@@H]1C(O)Oc2c(C)cc(O)c3c2[C@H]1CC[C@H]3C (some centres unmarked) [Compound 2, 5,18-epoxyserrulat-14-en-8,18-diol]
inhibition at 10 µM [1]: 24%
inhibition at 10 µM [2]: 31%
inhibition at 10 µM [3]: 7%
inhibition at 10 µM [4]: 2%
inhibition at 10 µM [5]: 10%
inhibition at 10 µM [6]: 78%
IC50 [6]: 6.1 µM
inhibition at 10 µM [7]: 5%
inhibition at 10 µM [8]: 39%
inhibition at 10 µM [9]: -20%
inhibition at 10 µM [10]: -2%
EC50 [11]: 9.64 µM
GI50 [11]: 9.62 µM
IC50 [11]: 9.64 µM
EC50 [12]: 6.54 µM
GI50 [12]: 7.98 µM
IC50 [12]: 8 µM
